The assay concerns mice. Put plainly: 2-phenyl-1,4-benzoquinone-induced writhing test in mice (Phenylquinone Writhing, PQW), analgesic activity. It counts as in vivo. An excerpt:
The compounds of Formula I of the present invention are useful as analgesic agents due to their ability to alleviate pain in mammals. […] Exptl. Biol. Med., 95, 729 (1957)].

Each structure is given as a SMILES string.

`Cc1nnc2n1-c1ccccc1-c1cc3ccccc3n1C2` [1-Methyl-4H-indolo[1,2-d][1,2,4]triazolo[4,3-a][1,4]benzodiazepine]: the “Analgesic PQW, % Inhibition of Writhing at 20 mg/kg., s.c.” value came out at 37%.
Regarding `Cc1nnc2n1-c1ccc(Cl)cc1-c1c(Cl)c3ccccc3n1C2` [10,12-Dichloro-1-methyl-4H-indolo[1,2-d][1,2,4]triazolo[4,3-a][1,4]benzodiazepine], the “Analgesic PQW, % Inhibition of Writhing at 20 mg/kg., s.c.” value came to 32%.
Take `Cc1nnc2n1-c1ccccc1-c1c(Cl)c3ccccc3n1C2` [10-Chloro-1-methyl-4H-indolo[1,2-d][1,2,4]triazolo[4,3-a][1,4]benzodiazepin]: the “Analgesic PQW, % Inhibition of Writhing at 20 mg/kg., s.c.” value amounted to 51%.
Regarding `Cc1nnc2n1-c1ccc(Cl)cc1-c1cc3ccccc3n1C2` [12-Chloro-1-methyl-4H-indolo[1,2-d][1,2,4]triazolo[4,3-a][1,4]benzodiazepin], the “Analgesic PQW, % Inhibition of Writhing at 20 mg/kg., s.c.” value is recorded as 46%.
Turning to `CCC(=O)O[C@](Cc1ccccc1)(c1ccccc1)[C@H](C)CN(C)C` [Propoxyphene, reference compound], the “Analgesic PQW, % Inhibition of Writhing (reference compound, at 3.9 mg/kg, s.c.)” value (3.9 mg/kg) was 50%.
